Literature values, collected in US20240335414A1, “SPECIALIZED COMBINATIONS FOR MENTAL DISORDERS OR MENTAL ENHANCEMENT” (TACTOGEN INC, priority 2021, published 2024).

Tests used:
[1] = pooled Phase 2 clinical trials
[2] = MDMA arm, first of two Phase 3 trials, MDMA-assisted therapy
5-HT1B = 5-HT1B (Homo sapiens, UniProt P28222)
Sequence of 5-HT1B (P28222 whole entry, species assumed): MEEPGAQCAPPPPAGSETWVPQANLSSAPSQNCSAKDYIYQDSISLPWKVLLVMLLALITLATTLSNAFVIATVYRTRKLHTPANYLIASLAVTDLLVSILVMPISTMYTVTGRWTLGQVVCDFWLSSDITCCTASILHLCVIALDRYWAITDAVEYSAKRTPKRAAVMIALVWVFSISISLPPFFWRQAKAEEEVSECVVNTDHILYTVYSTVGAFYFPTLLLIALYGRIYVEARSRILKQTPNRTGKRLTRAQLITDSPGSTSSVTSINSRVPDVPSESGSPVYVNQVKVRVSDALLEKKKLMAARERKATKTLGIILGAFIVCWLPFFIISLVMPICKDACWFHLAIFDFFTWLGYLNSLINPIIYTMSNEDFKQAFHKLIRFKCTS

CNC(C)Cc1ccc2c(c1)OCO2 (stereo not drawn) [MDMA, 3,4-methylenedioxymethamphetamine]
EC50 (neuritogenesis; read-out: EC50 for promoting neuritogenesis): 7.41 nM | Emax for promoting neuritogenesis, compared with ketamine (neuritogenesis; relative to ketamine): approximately twice that of ketamine | nausea, proportion of participants ([1]; 29 of 72 participants): 40.3% | anxiety, proportion of participants ([1]; 52 of 72 participants): 72.2% | participants no longer diagnosable with PTSD [2]: two-thirds | binding to the 5-HT1B (5-HT1B): does not bind
